# According to article PMC12463058, “SF3A3 Drives Tumorigenesis in Endometrial Cancer by Enhancing c‐FOS Expression and Represents a Potential Therapeutic Target” (Advanced Science, 2025):
# pKd: −log10 of the molar value.
# Target: T1, splicing factor 3A subunit 3 (SF3A3) (Homo sapiens, UniProt Q12874)
# T1 sequence (Q12874 1-501): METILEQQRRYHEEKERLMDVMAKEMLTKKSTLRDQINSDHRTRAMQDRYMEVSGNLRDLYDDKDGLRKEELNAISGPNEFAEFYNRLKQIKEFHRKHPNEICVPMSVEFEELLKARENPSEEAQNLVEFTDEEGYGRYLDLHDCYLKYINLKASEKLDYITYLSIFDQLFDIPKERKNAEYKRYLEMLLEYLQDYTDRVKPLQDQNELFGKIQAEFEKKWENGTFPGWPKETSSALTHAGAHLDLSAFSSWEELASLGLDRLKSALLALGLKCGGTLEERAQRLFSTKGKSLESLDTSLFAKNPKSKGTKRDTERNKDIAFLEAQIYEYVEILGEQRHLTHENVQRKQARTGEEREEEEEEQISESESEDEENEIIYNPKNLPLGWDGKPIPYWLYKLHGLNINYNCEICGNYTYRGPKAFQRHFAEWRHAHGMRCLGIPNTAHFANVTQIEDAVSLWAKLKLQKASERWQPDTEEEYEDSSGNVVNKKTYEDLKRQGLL
# Test: SPR (Biacore 8K, immobilized purified human SF3A3, steady-state affinity); supported by pulldown mass spectrometry
# Type: binding
smiles,measurement,value
S=C=NCCc1ccccc1 [PEITC],pKd,5.00
